This note sets out measurements from patent publication US20140179681A1, “METHODS AND COMPOSITIONS OF TARGETED DRUG DEVELOPMENT” (priority 2010, published 2014).

The structures appear in SMILES notation. Where two headings read alike, the source gives them in different places.

The subject of assay [1] is MDBK line. Nature of the assay: MTT Cell Proliferation Assay, MDBK cells. It is filed as cell-based, bovine. In a few lines: (§1)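 Each concentration ran in quadruplicate across duplicate plates, with compounds serially diluted in DMSO and delivered at 0.5% DMSO in 0.5% FBS medium for 3 days.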
Assay [2] concerns the target T1, EGFR (Homo sapiens, UniProt P00533).
T1 construct: host or cells: A431
Briefly: EGFR in-cell Western (ICW) screening protocol (EGFR inhibition assay). The class given is cell-based. As to conditions: for ICW assay: Table 10, % Inhibition of EGF dependent EGFR phosphorylation in A431 cells, compound 125 μM in assay. In a few lines: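 In-cell Western read-out: fixed A431 cells were co-stained for total EGFR and phospho-EGFR (Tyr1173; some runs Tyr1045). Before fixation, cells were serum-starved for 2 h, exposed to compound for 4 h, then given EGF for 10 min, usually at 10 ng/ml final (6.6 or 12.5 ng/ml in some runs).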

The subject of assay [3] is epithelial carcinoma A431 cell line. Briefly: MTT Cell Proliferation Assay, A431 cells. The class given is cell-based. The essentials: as §1
[4] abbreviates: Bos taurus, MDBK, second value of 'a/b (c)', taken as MDBK cells, read-out: MTT Screen, second value of cell.
Setting [5] is: Homo sapiens, A-431, first value of 'a/b (c)', taken as A431 cells, read-out: MTT Screen, first value of cell.
Where [6] appears, read: second value of 'a/b (c)', taken as MDBK cells, read-out: MTT Screen, second value of cell.
[7] abbreviates: first value of 'a/b (c)', taken as A431 cells, read-out: MTT Screen, first value of cell.
Setting [8] is: Bos taurus, MDBK, 72 h, Table 10, second of x/y(ratio): MDBK, three day treatment, unit not printed (doses in μM), read-out: MTT assay (second value).
Setting [9] is: Homo sapiens, A-431, 72 h, Table 10, first of x/y(ratio): A431, three day treatment, unit not printed (doses in μM), read-out: MTT assay (first value).
The mark [10] stands for this setting: Table 10, second of x/y(ratio): MDBK, three day treatment, unit not printed (doses in μM), read-out: MTT assay (second value).
[11] abbreviates: second value of 'a/b (c)', taken as MDBK cells.

T1 sequence (P00533 25-1210): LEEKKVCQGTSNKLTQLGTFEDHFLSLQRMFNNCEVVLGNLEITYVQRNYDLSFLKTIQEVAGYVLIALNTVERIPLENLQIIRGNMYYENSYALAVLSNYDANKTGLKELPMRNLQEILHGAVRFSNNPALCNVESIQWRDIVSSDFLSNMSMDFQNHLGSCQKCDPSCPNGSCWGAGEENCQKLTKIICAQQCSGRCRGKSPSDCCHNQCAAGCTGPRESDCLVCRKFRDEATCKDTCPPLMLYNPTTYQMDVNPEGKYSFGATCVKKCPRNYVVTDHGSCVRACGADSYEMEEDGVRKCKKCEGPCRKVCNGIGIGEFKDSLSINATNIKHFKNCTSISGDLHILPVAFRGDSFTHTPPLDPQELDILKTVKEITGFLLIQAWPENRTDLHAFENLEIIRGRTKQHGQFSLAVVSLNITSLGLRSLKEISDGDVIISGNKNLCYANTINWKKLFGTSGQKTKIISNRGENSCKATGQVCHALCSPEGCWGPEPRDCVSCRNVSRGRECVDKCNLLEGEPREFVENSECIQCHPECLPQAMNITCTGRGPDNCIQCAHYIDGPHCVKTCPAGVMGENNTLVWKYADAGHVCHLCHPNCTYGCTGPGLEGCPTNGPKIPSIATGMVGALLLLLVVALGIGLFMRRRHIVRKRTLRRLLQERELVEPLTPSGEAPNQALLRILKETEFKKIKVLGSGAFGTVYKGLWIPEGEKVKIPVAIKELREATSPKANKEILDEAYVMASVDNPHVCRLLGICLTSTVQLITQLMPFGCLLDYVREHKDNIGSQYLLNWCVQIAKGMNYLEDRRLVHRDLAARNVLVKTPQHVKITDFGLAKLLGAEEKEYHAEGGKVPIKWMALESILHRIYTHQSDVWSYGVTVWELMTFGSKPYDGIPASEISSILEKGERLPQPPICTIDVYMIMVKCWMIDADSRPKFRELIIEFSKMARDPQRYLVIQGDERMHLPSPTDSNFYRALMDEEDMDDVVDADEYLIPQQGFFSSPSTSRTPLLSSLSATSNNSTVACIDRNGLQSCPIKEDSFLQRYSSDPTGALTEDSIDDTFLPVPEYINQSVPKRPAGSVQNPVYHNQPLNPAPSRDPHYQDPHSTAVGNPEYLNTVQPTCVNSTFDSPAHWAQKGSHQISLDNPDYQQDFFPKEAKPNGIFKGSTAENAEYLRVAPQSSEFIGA

On to `COc1ccc(CC(=O)NC(=S)Nc2ccc(S(=O)(=O)Nc3ccc(C)c(C)c3)cc2)cc1` [AD4-11418], for which the IC50 in assay [1] (setting [4]) is 10.2 µM; in assay [3] (setting [5]), 11.9 µM. For the same compound, the “ICW Screen (ICW Inhibition)” value in assay [2] turned out to be 34.067.

As to `Cc1ccc(NS(=O)(=O)c2ccc(NC(=S)NC(=O)CCc3ccccc3)cc2)cc1C` [AD4-11419], the IC50 was determined as 38.8 µM in assay [1] (setting [4]) and 31.3 µM in assay [3] (setting [5]). For the same compound, in assay [2], the “ICW Screen (ICW Inhibition)” value came out at 40.289.

On to `O=C(NC(=S)Nc1ccc(S(=O)(=O)N2CCCCC2)cc1)C1CCC1` [AD4-11421], for which the IC50 in assay [1] (setting [4]) was found to be 43.5 µM; in assay [3] (setting [5]) it was 41.5 µM. Moreover, the “ICW Screen (ICW Inhibition)” value in assay [2] is on record as 37.181.

As to `Cc1ccc(NS(=O)(=O)c2ccc(NC(=S)NC(=O)C3CCC3)cc2)cc1C` [AD4-11422], the IC50 is 9.23 µM in assay [1] (setting [6]) and 29.5 µM in assay [3] (setting [7]). Moreover, the “ICW Screen (ICW Inhibition)” value in assay [2] was determined as 44.982.

Take `Cc1cc(C)c(NS(=O)(=O)c2ccc(NC(=S)Nc3ccc(S(C)(=O)=O)cc3)cc2)c(C)c1` [AD4-11427]: the IC50 in assay [1] (setting [8]) turned out to be 14.5 µM; in assay [3] (setting [9]) it was 12 µM. Further, the ICW assay in assay [2] is 44.904.

On to `COc1ccc(NC(=S)Nc2ccc(S(=O)(=O)Nc3c(C)cc(C)cc3C)cc2)cc1OC` [AD4-11428], for which the figures for the IC50 in assay [1] (setting [8]) and in assay [3] (setting [9]) were 15.5 µM and 20.8 µM, respectively. Besides, the ICW assay in assay [2] was 29.8673.

As for `CCN(c1ccccc1)S(=O)(=O)c1ccc(NC(=S)Nc2ccccc2)cc1` [AD4-11430], the IC50 stood at 16.8 µM in assay [1] (setting [10]) and 19.8 µM in assay [3] (setting [9]). Moreover, the ICW assay in assay [2] was found to be 27.1482.

Consider `COc1ccc(NC(=S)Nc2ccc(S(=O)(=O)Nc3ccc(Cl)c(Cl)c3)cc2)cc1OC` [AD4-11432], for which the IC50 in assay [1] (setting [10]) amounted to 7.82 µM; in assay [3] (Table 10, first of x/y(ratio): A431, three day treatment, unit not printed (doses in μM), read-out: MTT assay (first value)), 7.8 µM. In addition, in assay [2], the ICW assay came out at 47.0006.

Consider `CC(C)NS(=O)(=O)c1ccc(NC(=S)NC(=O)CCCCCOc2ccc(Cl)cc2Cl)cc1` [AD4-11538], for which the IC50 in assay [1] (setting [4]) came out at 5.19 µM; in assay [3] (setting [5]), 5.48 µM. The “ICW Screen (ICW Inhibition)” value in assay [2] worked out at 34.978.

On to `CCc1nnc(NS(=O)(=O)c2ccc(NC(=S)NC(=O)/C=C/c3ccc(OC)cc3)cc2)s1` [AD4-11637], for which, in assay [1] (setting [4]), the IC50 is 17.8 µM. Also, in assay [2], the “ICW Screen (ICW Inhibition)” value is recorded as 33.491. For the same compound, the “MTT Screen, first value of cell” value in assay [3] (first value of 'a/b (c)', taken as A431 cells) was “non- conver- gent”.

With `COc1cc(NS(=O)(=O)c2ccc(NC(=S)NC(=O)/C=C/c3ccc(C(C)C)cc3)cc2)nc(OC)n1` [AD4-11638], the figures for the IC50 in assay [1] (setting [4]) and in assay [3] (setting [5]) were 14.9 µM and 11.2 µM, respectively. Also, the “ICW Screen (ICW Inhibition)” value in assay [2] is recorded as 68.754.

Turning to `Cc1cc(C)nc(NS(=O)(=O)c2ccc(NC(=S)NC(=O)/C=C/c3ccc(C(C)C)cc3)cc2)n1` [AD4-11642], the results for the IC50 in assay [1] (setting [4]) and in assay [3] (setting [5]) were 9.46 µM and 9.89 µM, respectively. Further, the “ICW Screen (ICW Inhibition)” value in assay [2] is on record as 40.922.

`COc1ccc(/C=C/C(=O)NC(=S)Nc2ccc(S(=O)(=O)Nc3cc(OC)nc(OC)n3)cc2)cc1` [AD4-11645]: the IC50 worked out at 47 µM in assay [1] (setting [4]) and 45.6 µM in assay [3] (setting [5]). Further, the “ICW Screen (ICW Inhibition)” value in assay [2] is 66.452.

Consider `COc1ccc(/C=C/C(=O)NC(=S)Nc2ccc(S(=O)(=O)Nc3nc(C)cc(C)n3)cc2)cc1` [AD4-11646], for which the figures for the IC50 in assay [1] (setting [4]) and in assay [3] (setting [5]) were 21.1 µM and 19.4 µM, respectively. The “ICW Screen (ICW Inhibition)” value in assay [2] amounted to 37.949.

In the case of `Cc1cc(C)nc(NS(=O)(=O)c2ccc(NC(=S)NC(=O)/C=C/c3ccc(Cl)cc3)cc2)n1` [AD4-11648], the IC50 was 45.1 µM in assay [1] (setting [4]) and 46.7 µM in assay [3] (setting [5]). In addition, the “ICW Screen (ICW Inhibition)” value in assay [2] is 38.362.

For the compound `COc1ccc(/C=C/C(=O)NC(=S)Nc2ccc(S(=O)(=O)Nc3cc(C)on3)cc2)cc1` [AD4-11867], the results for the IC50 in assay [1] (setting [4]) and in assay [3] (setting [5]) were 48.1 µM and 51 µM, respectively. For the same compound, the “ICW Screen (ICW Inhibition)” value in assay [2] is recorded as 32.432.

For `COc1cc(NS(=O)(=O)c2ccc(NC(=S)NC(=O)/C=C/c3ccco3)cc2)ncn1` [AD4-11870], the IC50 in assay [1] (setting [4]) was 47.3 µM; in assay [3] (setting [5]), 55.1 µM. Also, the “ICW Screen (ICW Inhibition)” value in assay [2] was found to be 30.849.

With `Cc1cc(C)nc(NS(=O)(=O)c2ccc(NC(=S)NC(=O)/C=C/c3ccc(F)cc3)cc2)n1` [AD4-11871], the values for the IC50 in assay [1] (setting [4]) and in assay [3] (setting [5]) were 41.8 µM and 49.7 µM, respectively. Moreover, the “ICW Screen (ICW Inhibition)” value in assay [2] was determined as 45.776.

Regarding `COc1cc(NS(=O)(=O)c2ccc(NC(=S)NC(=O)/C=C/c3ccc(C)cc3)cc2)nc(OC)n1` [AD4-11874], the IC50 in assay [1] (setting [4]) was found to be 39 µM; in assay [3] (setting [5]), 35 µM. Also, in assay [2], the “ICW Screen (ICW Inhibition)” value is listed as 32.474.

With `CCc1nnc(NS(=O)(=O)c2ccc(NC(=S)NC(=O)/C=C/c3cccs3)cc2)s1` [AD4-11880], the IC50 in assay [1] (setting [4]) and in assay [3] (setting [5]) was 47.3 µM throughout. Also, the “ICW Screen (ICW Inhibition)” value in assay [2] is 37.604.

`COc1cc(NS(=O)(=O)c2ccc(NC(=S)NC(=O)/C=C/c3cccs3)cc2)nc(OC)n1` [AD4-11881]: the IC50 in assay [1] (setting [4]) turned out to be 46.5 µM; in assay [3] (setting [5]), 63.3 µM. Also, the “ICW Screen (ICW Inhibition)” value in assay [2] was determined as 34.08.

With `COc1ccc(/C=C/C(=O)NC(=S)Nc2ccc(S(=O)(=O)Nc3nc(C)cc(C)n3)cc2)cc1OC` [AD4-11883], the “MTT Screen, second value of cell” value in assay [1] (setting [11]) was “non- conver- gent”. The “ICW Screen (ICW Inhibition)” value in assay [2] worked out at 83.13. For the same compound, the IC50 in assay [3] (setting [5]) is 19.5 µM.

As to `Cc1cc(NS(=O)(=O)c2ccc(NC(=S)NC(=O)/C=C/c3ccccc3)cc2)no1` [AD4-11885], the IC50 in assay [1] (setting [6]) stood at 48.3 µM; in assay [3] (setting [7]), 37.8 µM. For the same compound, the “ICW Screen (ICW Inhibition)” value in assay [2] is 32.38.

For the compound `Cc1ccc(NS(=O)(=O)c2ccc(NC(=S)NC(=O)C(C)(C)C)cc2)c(C)c1` [AD4-11968], the IC50 in assay [1] (setting [4]) was 6.29 µM; in assay [3] (setting [5]), 6.49 µM. In addition, the “ICW Screen (ICW Inhibition)” value in assay [2] is 45.095.

As for `COc1ccc(NS(=O)(=O)c2ccc(NC(=S)NC(=O)C(C)C)cc2)cc1` [AD4-11971], the IC50 in assay [1] (setting [4]) was determined as 41.1 µM; in assay [3] (setting [5]), 41.5 µM. For the same compound, in assay [2], the “ICW Screen (ICW Inhibition)” value stood at 44.908.

Turning to `CC(C)CC(=O)NC(=S)Nc1ccc(S(=O)(=O)Nc2ccccc2)cc1` [AD4-11975], the figures for the IC50 in assay [1] (setting [4]) and in assay [3] (setting [5]) were 17.2 µM and 17.5 µM, respectively. In assay [2], the “ICW Screen (ICW Inhibition)” value came to 75.826.

In the case of `CC1CCN(S(=O)(=O)c2ccc(NC(=S)NC(=O)C(C)C)cc2)CC1` [AD4-11977], the “MTT Screen, second value of cell” value in assay [1] (setting [11]) was “non- conver- gent”. Also, the “ICW Screen (ICW Inhibition)” value in assay [2] is given as 33.588. The IC50 in assay [3] (setting [5]) stood at 32.5 µM.

Consider `C=CCN(CC=C)S(=O)(=O)c1ccc(NC(=S)NC(=O)/C=C/c2cccs2)cc1` [AD4-11979], for which the IC50 in assay [1] (setting [4]) stood at 16.2 µM; in assay [3] (setting [5]), 9.31 µM. Moreover, the “ICW Screen (ICW Inhibition)” value in assay [2] was 39.775.

In the case of `CCOC(=O)CCC(=O)NC(=S)Nc1ccc(S(=O)(=O)Nc2cc(OC)nc(OC)n2)cc1` [AD4-11980], the IC50 in assay [1] (setting [4]) came to 24.4 µM; in assay [3] (setting [5]) it was 49.8 µM. Moreover, the “ICW Screen (ICW Inhibition)” value in assay [2] is given as 25.235.

In the case of `CC(C)C(=O)NC(=S)Nc1ccc(S(=O)(=O)NC2CCCCC2)cc1` [AD4-11985], the IC50 in assay [1] (setting [4]) worked out at 39.9 µM; in assay [3] (setting [5]), 62.5 µM. Further, the “ICW Screen (ICW Inhibition)” value in assay [2] is on record as 40.346.

Turning to `Cc1ccc(NS(=O)(=O)c2ccc(NC(=S)NC(=O)C(C)C)cc2)cc1C` [AD4-12003], the IC50 in assay [1] (setting [4]) stood at 12.8 µM; in assay [3] (setting [5]) it was 11.5 µM. For the same compound, the “ICW Screen (ICW Inhibition)” value in assay [2] is reported as 32.007.
